Where two headings read alike, the source gives them in different places.
Test: Pharmacokinetic studies, single administration
Format: in vivo, male Swiss albino mice
Details: for MRT last: read-out: MRT0-last
Method: The pharmacokinetic study was performed in male Swiss albino mice from Hylasco Biotechnology Pvt. Ltd. (A Charles River technology Licensee). The tissue distribution study was performed in male Swiss albino mice and in male FOXN1^nu/nu nude mice (Envigo spa). The efficacy study was performed in male FOXN1^nu/nu nude mice.
Single intravenous administration studies were done as follows: • 1. Compound 5 • dose: 1 mg/kg • dose concentration: 0.2 mg/ml in 10% DMSO and 10% Solutol in WFI (90%). • volume: 5 ml/kg • blood withdrawal time points: 0.083, 0.25, 0.5, 1, 2, 4, 8, 24 hours post administration • 2. Compound 3 • […] • dose concentration: 0.2 mg/ml in 10% DMSO and 10% Solutol in WFI (90%). • volume: 5 ml/kg • blood withdrawal time points: 0.083, 0.25, 0.5, 1, 2, 4, 8, 24 hours post administration
Single intraperitoneal administration studies were done as follows: • 1. Compound 5 • dose 1: 45 mg/kg • dose concentration: […] in 10% DMSO, 5% TWEEN 80 and WFI (85%) • volume: 5 ml/kg • blood withdrawal time points: 0.25, 0.5, 1, 2, 4, 6, 8, 24 hours post administration • brain, liver and lungs collected at 4, 8 and 24 hours • 2. Compound 5 • dose 2: 10 mg/kg • dose concentration: 2 mg/ml in 10% DMSO, 10% Solutol and WFI (90%). • volume: 5 ml/kg • blood withdrawal time points: 0.25, 0.5, 1, 2, 4, 6, 8, 24 hours post administration
Single oral administration studies were done as follows: • 1. Compound 5 • dose: 45 mg/kg • dose concentration: 4.5 mg/ml in Labrasol (30%), Capmul PG 8 (30%), Cremophor EL (10%) and PEG (30%) • volume given by oral gavage: 10 ml/Kg • blood withdrawal time points: 0.08, 0.25, 0.5, 1, 2, 4, 6, 8, 24 hours post administration
Single intra tracheal administration studies were done as follows: • 1. Compound 5 • dose: 0.08 mg/kg • dose concentration: 0.04 mg/ml in DMSO (1%) and WFI (99%) • volume given by intra tracheal route: 2 ml/Kg • blood withdrawal time points: 0.03, 0.08, 0.17, 0.25, 0.75, 1.5, 2, 4 hours post administration
Animals were observed up to 24 hours after dose administration for behavioral or physical alterations. For blood withdrawal, mice were anesthetized using gaseous anesthesia and 0.2 to 0.3 ml of blood samples were collected in Li-Heparin containing tubes at the time points above indicated, stored on ice, centrifuged within 15 minutes to separate plasma at 1540 ref (5000 rpm) at 4°C for 10 minutes; plasma was separated and transferred to new tubes.
Selected organs were collected at 4, 8 and 24 hours for drug distribution studies: mice were anesthetized and intra-cardiac whole body perfusion was performed using chilled saline. Separated tissues were immediately washed, dried, weighed and frozen at -80±10°C until homogenization. The levels of compound in the tissues and in plasma were quantified by LC-MS/MS, using as instrument Q-TRAP 500, with a column Phenomenex, KINETEX 5µ EVO C18 50 mm X 4.5 mm (Phenomenex). The mobile phase employed was composed as follows: aqueous reservoir, 10 mM Ammonium Acetate with 0.1% Formic acid in MilliQ water; organic reservoir, Acetonitrile:Methanol (50:50, v/v); flow rate 1 ml/min; injection volume 10µl; rinsing solution, Acetonitrile:Methanol:Water (20:60:20, v/v).
Calibration Curve & Quality Control samples preparation: 0.5 µl of calibration curve standards were diluted 25X with blank matrix (i.e. Acetonitrile:Methanol (1:1, v/v)) and precipitated with 200 µl of acetonitrile containing internal standard at 200 ng/ml concentration, then vortexed for 5 min at 850 rpm, centrifuged at 4000 rpm for 5 min at 4°C, from this 110 µl of supernatant was separated and diluted with 130 µl of methanol:water, (1:1 v/v) .
Telmisartan (200 ng/ml) was used as internal standard. Telmisartan was spiked in 100% acetonitrile to a final concentration of 200 ng/ml. […]

[1] = I.P. 1, 45 mg/kg, TWEEN-based vehicle
[2] = I.P. 2, 10 mg/kg, Solutol-based vehicle
[3] = mouse, in vivo, iv, I.V., 1 mg/kg
[4] = mouse, plasma, ip, I.P. 1, 45 mg/kg, TWEEN-based vehicle
[5] = mouse, plasma, ip, I.P. 2, 10 mg/kg, Solutol-based vehicle
[6] = mouse, plasma, iv, I.V., 1 mg/kg
[7] = mouse, plasma, po, P.O., 45 mg/kg
[8] = mouse, plasma, I.T., 0.08 mg/kg

CCCCc1cn(-c2ccc(-c3nnc(-c4ccccc4C(F)(F)F)o3)cc2)nn1 [Compound 5]
AUCExtra [1]: 14.86% | F [1]: 136% | AUCExtra [2]: 5.02% | F [2]: 135% | AUCExtra (I.T., 0.08 mg/kg): 2.92% | AUCExtra (I.V., 1 mg/kg): 3.98% | AUCExtra (P.O., 45 mg/kg): 16.91% | F (P.O., 45 mg/kg): 95% | bioavailability (mouse, in vivo, ip, intraperitoneal route, read-out: absolute bioavailability (F)): > 100% | Vd [3]: 8.2 L/kg | clearance [3]: 40 mL/min/kg | AUC(0-inf) [4]: 25600 ng·h/mL | AUC(0-t) [4]: 21800 ng·h/mL | Cmax [4]: 3700 ng/mL | Tmax [4]: 2 h | MRT last [4]: 7.46 h | AUC(0-inf) [5]: 5630 ng·h/mL | AUC(0-t) [5]: 5350 ng·h/mL | Cmax [5]: 692 ng/mL | Tmax [5]: 2 h | MRT last [5]: 6.49 h | AUC(0-inf) [6]: 417 ng·h/mL | AUC(0-t) [6]: 400 ng·h/mL | C0 [6]: 879 ng/mL | half-life [6]: 2.37 h | MRT last [6]: 1.09 h | AUC(0-inf) [7]: 17800 ng·h/mL | AUC(0-t) [7]: 14800 ng·h/mL | Cmax [7]: 1350 ng/mL | Tmax [7]: 4 h | MRT last [7]: 9.05 h | AUC(0-inf) [8]: 815 ng·h/mL | AUC(0-t) [8]: 791 ng·h/mL | Cmax [8]: 1950 ng/mL | Tmax [8]: 0.03 h | MRT last [8]: 0.72 h
